Source: ChEMBL document CHEMBL5584201, “Amphiphilic tribasic galactosamines potentiate rifampicin in Gram-negative bacteria at low Mg++/Ca++concentrations” (Bioorg Med Chem Lett, 2024)
Values after ≈ are worked out from the molar mass of the structure shown.

Tested on: Pseudomonas aeruginosa
Experiment: Potentiation of rifampicin-induced antibacterial activity against Pseudomonas aeruginosa PAO1 assessed as fold change in rifampicin MIC in low salt containing media by Mueller-Hinton broth based assay
Assay type: functional
Settings: not given
In the case of CCCCCCCCO[C@H]1[C@@H](N)[C@@H](CN=[N+]=[N-])O[C@H](OCc2ccc3ccccc3c2)[C@@H]1N, the “fold change (FC)” value is reported as 8.

Tested on: Acinetobacter baumannii
Experiment: Potentiation of rifampicin-induced antibacterial activity against Acinetobacter baumannii ATCC 17978 assessed as fold change in rifampicin MIC in low salt containing media by Mueller-Hinton broth based assay
Assay type: functional
Settings: not given
For CCCCCCCCO[C@H]1[C@@H](N)[C@@H](CN=[N+]=[N-])O[C@H](OCc2ccc3ccccc3c2)[C@@H]1N, the “fold change (FC)” value was “>=256”.

Tested on: Acinetobacter baumannii
Experiment: Potentiation of rifampicin-induced antibacterial activity against Acinetobacter baumannii 92247 assessed as fold change in rifampicin MIC at 2 to 8 microg/ml in high concentration of Ca++ and Mg++ containing media by Mueller-Hinton broth based assay
Assay type: functional
Settings: dose 2-8 µg/ml
In the case of CCCCCCCCO[C@H]1[C@@H](N)[C@@H](CN=[N+]=[N-])O[C@H](OCc2ccc3ccccc3c2)[C@@H]1N, the “fold change (FC)” value is reported as 4.

Tested on: Escherichia coli
Experiment: Antibacterial activity against Escherichia coli ATCC 25922 in high concentration of Ca++ and Mg++ containing media by Mueller-Hinton broth based assay
Assay type: functional
Settings: not given
CCCCCCCCO[C@H]1[C@@H](N)[C@@H](CN=[N+]=[N-])O[C@H](OCc2ccc3ccccc3c2)[C@@H]1N showed an MIC of 128 µg/mL (≈ 281 µM).

Tested on: Escherichia coli
Experiment: Potentiation of rifampicin-induced antibacterial activity against Escherichia coli ATCC 25922 assessed as rifampicin MIC at 2 to 8 microg/ml in high concentration of Ca++ and Mg++ containing media by Mueller-Hinton broth based assay
Assay type: functional
Settings: dose 2-8 µg/ml
Work on CCCCCCCCO[C@H]1[C@@H](N)[C@@H](CN=[N+]=[N-])O[C@H](OCc2ccc3ccccc3c2)[C@@H]1N yielded an MIC of 2 µg/mL.

Tested on: Acinetobacter baumannii
Experiment: Potentiation of rifampicin-induced antibacterial activity against Acinetobacter baumannii 92247 assessed as fold change in rifampicin MIC at 16 microg/ml in high concentration of Ca++ and Mg++ containing media by Mueller-Hinton broth based assay
Assay type: functional
Settings: dose 16 µg/ml
For CCCCCCCCO[C@H]1[C@@H](N)[C@@H](CN=[N+]=[N-])O[C@H](OCc2ccc3ccccc3c2)[C@@H]1N, the “fold change (FC)” value was 64.

Tested on: Acinetobacter baumannii
Experiment: Antibacterial activity against Acinetobacter baumannii 92247 in high concentration of Ca++ and Mg++ containing media by Mueller-Hinton broth based assay
Assay type: functional
Settings: not given
Work on CCCCCCCCO[C@H]1[C@@H](N)[C@@H](CN=[N+]=[N-])O[C@H](OCc2ccc3ccccc3c2)[C@@H]1N yielded an MIC of 128 µg/mL (≈ 281 µM).

Tested on: Escherichia coli
Experiment: Potentiation of rifampicin-induced antibacterial activity against Escherichia coli ATCC 25922 assessed as fold change in rifampicin MIC at 2 to 8 microg/ml in high concentration of Ca++ and Mg++ containing media by Mueller-Hinton broth based assay
Assay type: functional
Settings: dose 2-8 µg/ml
For CCCCCCCCO[C@H]1[C@@H](N)[C@@H](CN=[N+]=[N-])O[C@H](OCc2ccc3ccccc3c2)[C@@H]1N, the “fold change (FC)” value was 1.

Tested on: Acinetobacter baumannii
Experiment: Potentiation of rifampicin-induced antibacterial activity against Acinetobacter baumannii 92247 assessed as rifampicin MIC at 2 to 8 microg/ml in high concentration of Ca++ and Mg++ containing media by Mueller-Hinton broth based assay
Assay type: functional
Settings: dose 2-8 µg/ml
With CCCCCCCCO[C@H]1[C@@H](N)[C@@H](CN=[N+]=[N-])O[C@H](OCc2ccc3ccccc3c2)[C@@H]1N the MIC was 4 µg/mL.

Tested on: Escherichia coli
Experiment: Potentiation of rifampicin-induced antibacterial activity against Escherichia coli […] assessed as rifampicin MIC at 2 to 8 microg/ml in high concentration of Ca++ and Mg++ containing media by Mueller-Hinton broth based assay
Assay type: functional
Settings: dose 2-8 µg/ml
Compound CCCCCCCCO[C@H]1[C@@H](N)[C@@H](CN=[N+]=[N-])O[C@H](OCc2ccc3ccccc3c2)[C@@H]1N has an MIC of 2 µg/mL.

Tested on: Escherichia coli
Experiment: Potentiation of rifampicin-induced antibacterial activity against Escherichia coli ATCC 25922 assessed as fold change in rifampicin MIC at 16 microg/ml in high concentration of Ca++ and Mg++ containing media by Mueller-Hinton broth based assay
Assay type: functional
Settings: dose 16 µg/ml
With CCCCCCCCO[C@H]1[C@@H](N)[C@@H](CN=[N+]=[N-])O[C@H](OCc2ccc3ccccc3c2)[C@@H]1N the “fold change (FC)” value was 16.

Tested on: Acinetobacter baumannii
Experiment: Antibacterial activity against Acinetobacter baumannii ATCC 17978 in high concentration of Ca++ and Mg++ containing media by Mueller-Hinton broth based assay
Assay type: functional
Settings: not given
Work on CCCCCCCCO[C@H]1[C@@H](N)[C@@H](CN=[N+]=[N-])O[C@H](OCc2ccc3ccccc3c2)[C@@H]1N yielded an MIC greater than 128 µg/mL.

Tested on: Escherichia coli
Experiment: Potentiation of rifampicin-induced antibacterial activity against Escherichia coli […] assessed as rifampicin MIC at 16 microg/ml in high concentration of Ca++ and Mg++ containing media by Mueller-Hinton broth based assay
Assay type: functional
Settings: dose 16 µg/ml
CCCCCCCCO[C@H]1[C@@H](N)[C@@H](CN=[N+]=[N-])O[C@H](OCc2ccc3ccccc3c2)[C@@H]1N gave an MIC of 16 µg/mL.

Tested on: Acinetobacter baumannii
Experiment: Potentiation of rifampicin-induced antibacterial activity against Acinetobacter baumannii 92247 assessed as rifampicin MIC at 16 microg/ml in high concentration of Ca++ and Mg++ containing media by Mueller-Hinton broth based assay
Assay type: functional
Settings: dose 16 µg/ml
In the case of CCCCCCCCO[C@H]1[C@@H](N)[C@@H](CN=[N+]=[N-])O[C@H](OCc2ccc3ccccc3c2)[C@@H]1N, the MIC is reported as 16 µg/mL.

Tested on: Pseudomonas aeruginosa
Experiment: Antibacterial activity against Pseudomonas aeruginosa PAO1 in low salt containing media by Mueller-Hinton broth based assay
Assay type: functional
Settings: not given
In the case of CCCCCCCCO[C@H]1[C@@H](N)[C@@H](CN=[N+]=[N-])O[C@H](OCc2ccc3ccccc3c2)[C@@H]1N, the MIC is reported as 32 µg/mL.

Tested on: Escherichia coli
Experiment: Potentiation of rifampicin-induced antibacterial activity against Escherichia coli ATCC 25922 assessed as rifampicin MIC in low salt containing media by Mueller-Hinton broth based assay
Assay type: functional
Settings: not given
CCCCCCCCO[C@H]1[C@@H](N)[C@@H](CN=[N+]=[N-])O[C@H](OCc2ccc3ccccc3c2)[C@@H]1N showed an MIC of 2 µg/mL.

Tested on: Escherichia coli
Experiment: Potentiation of rifampicin-induced antibacterial activity against Escherichia coli […] assessed as fold change in rifampicin MIC at 2 to 8 microg/ml in high concentration of Ca++ and Mg++ containing media by Mueller-Hinton broth based assay
Assay type: functional
Settings: dose 2-8 µg/ml
For CCCCCCCCO[C@H]1[C@@H](N)[C@@H](CN=[N+]=[N-])O[C@H](OCc2ccc3ccccc3c2)[C@@H]1N, the “fold change (FC)” value was 1.

Tested on: Escherichia coli
Experiment: Potentiation of rifampicin-induced antibacterial activity against Escherichia coli ATCC 25922 assessed as fold change in rifampicin MIC in low salt containing media by Mueller-Hinton broth based assay
Assay type: functional
Settings: not given
In the case of CCCCCCCCO[C@H]1[C@@H](N)[C@@H](CN=[N+]=[N-])O[C@H](OCc2ccc3ccccc3c2)[C@@H]1N, the “fold change (FC)” value is reported as 64.

Tested on: Acinetobacter baumannii
Experiment: Potentiation of rifampicin-induced antibacterial activity against Acinetobacter baumannii ATCC 17978 assessed as fold change in rifampicin MIC at 2 to 8 microg/ml in high concentration of Ca++ and Mg++ containing media by Mueller-Hinton broth based assay
Assay type: functional
Settings: dose 2-8 µg/ml
In the case of CCCCCCCCO[C@H]1[C@@H](N)[C@@H](CN=[N+]=[N-])O[C@H](OCc2ccc3ccccc3c2)[C@@H]1N, the “fold change (FC)” value is reported as 2.

Tested on: Acinetobacter baumannii
Experiment: Antibacterial activity against Acinetobacter baumannii ATCC 17978 in low salt containing media by Mueller-Hinton broth based assay
Assay type: functional
Settings: not given
Work on CCCCCCCCO[C@H]1[C@@H](N)[C@@H](CN=[N+]=[N-])O[C@H](OCc2ccc3ccccc3c2)[C@@H]1N yielded an MIC of 16 µg/mL.

Tested on: Escherichia coli
Experiment: Antibacterial activity against Escherichia coli ATCC 25922 in low salt containing media by Mueller-Hinton broth based assay
Assay type: functional
Settings: not given
In the case of CCCCCCCCO[C@H]1[C@@H](N)[C@@H](CN=[N+]=[N-])O[C@H](OCc2ccc3ccccc3c2)[C@@H]1N, the MIC is reported as 8 µg/mL.

Tested on: Acinetobacter baumannii
Experiment: Potentiation of rifampicin-induced antibacterial activity against Acinetobacter baumannii ATCC 17978 assessed as rifampicin MIC at 2 to 8 microg/ml in high concentration of Ca++ and Mg++ containing media by Mueller-Hinton broth based assay
Assay type: functional
Settings: dose 2-8 µg/ml
In the case of CCCCCCCCO[C@H]1[C@@H](N)[C@@H](CN=[N+]=[N-])O[C@H](OCc2ccc3ccccc3c2)[C@@H]1N, the MIC is reported as 4 µg/mL.

Tested on: Escherichia coli
Experiment: Potentiation of rifampicin-induced antibacterial activity against Escherichia coli ATCC 25922 assessed as rifampicin MIC at 16 microg/ml in high concentration of Ca++ and Mg++ containing media by Mueller-Hinton broth based assay
Assay type: functional
Settings: dose 16 µg/ml
For CCCCCCCCO[C@H]1[C@@H](N)[C@@H](CN=[N+]=[N-])O[C@H](OCc2ccc3ccccc3c2)[C@@H]1N, the MIC was 16 µg/mL.

Tested on: Acinetobacter baumannii
Experiment: Potentiation of rifampicin-induced antibacterial activity against Acinetobacter baumannii ATCC 17978 assessed as rifampicin MIC in low salt containing media by Mueller-Hinton broth based assay
Assay type: functional
Settings: not given
CCCCCCCCO[C@H]1[C@@H](N)[C@@H](CN=[N+]=[N-])O[C@H](OCc2ccc3ccccc3c2)[C@@H]1N gave an MIC of 4 µg/mL.

Tested on: Pseudomonas aeruginosa
Experiment: Potentiation of rifampicin-induced antibacterial activity against Pseudomonas aeruginosa PAO1 assessed as rifampicin MIC in low salt containing media by Mueller-Hinton broth based assay
Assay type: functional
Settings: not given
With CCCCCCCCO[C@H]1[C@@H](N)[C@@H](CN=[N+]=[N-])O[C@H](OCc2ccc3ccccc3c2)[C@@H]1N the MIC was 8 µg/mL.

Tested on: not listed separately
Experiment: Cytotoxicity against human HepG2 cells assessed as cell viability at 9 uM relative to control
Assay type: toxicity, cell-based
Settings: read-out: Activity
Compound CCCCCCCCO[C@H]1[C@@H](N)[C@@H](CN=[N+]=[N-])O[C@H](OCc2ccc3ccccc3c2)[C@@H]1N has a viability at 9 µM of 46%.

Tested on: not listed separately
Experiment: Cytotoxicity against HEK293 cells assessed as cell viability at 9 uM relative to control
Assay type: toxicity, cell-based
Settings: human, read-out: Activity
CCCCCCCCO[C@H]1[C@@H](N)[C@@H](CN=[N+]=[N-])O[C@H](OCc2ccc3ccccc3c2)[C@@H]1N gave a viability at 9 µM of 31.7%.

Tested on: Escherichia coli
Experiment: Potentiation of rifampicin-induced antibacterial activity against Escherichia coli […] assessed as fold change in rifampicin MIC at 16 microg/ml in high concentration of Ca++ and Mg++ containing media by Mueller-Hinton broth based assay
Assay type: functional
Settings: dose 16 µg/ml
For CCCCCCCCO[C@H]1[C@@H](N)[C@@H](CN=[N+]=[N-])O[C@H](OCc2ccc3ccccc3c2)[C@@H]1N, the “fold change (FC)” value was 64.

Tested on: Escherichia coli
Experiment: Antibacterial activity against Escherichia coli […] in high concentration of Ca++ and Mg++ containing media by Mueller-Hinton broth based assay
Assay type: functional
Settings: not given
CCCCCCCCO[C@H]1[C@@H](N)[C@@H](CN=[N+]=[N-])O[C@H](OCc2ccc3ccccc3c2)[C@@H]1N gave an MIC of 128 µg/mL (≈ 281 µM).

Tested on: Acinetobacter baumannii
Experiment: Potentiation of rifampicin-induced antibacterial activity against Acinetobacter baumannii ATCC 17978 assessed as rifampicin MIC at 16 microg/ml in high concentration of Ca++ and Mg++ containing media by Mueller-Hinton broth based assay
Assay type: functional
Settings: dose 16 µg/ml
In the case of CCCCCCCCO[C@H]1[C@@H](N)[C@@H](CN=[N+]=[N-])O[C@H](OCc2ccc3ccccc3c2)[C@@H]1N, the MIC is reported as 16 µg/mL.

Tested on: Acinetobacter baumannii
Experiment: Potentiation of rifampicin-induced antibacterial activity against Acinetobacter baumannii ATCC 17978 assessed as fold change in rifampicin MIC at 16 microg/ml in high concentration of Ca++ and Mg++ containing media by Mueller-Hinton broth based assay
Assay type: functional
Settings: dose 16 µg/ml
In the case of CCCCCCCCO[C@H]1[C@@H](N)[C@@H](CN=[N+]=[N-])O[C@H](OCc2ccc3ccccc3c2)[C@@H]1N, the “fold change (FC)” value is reported as 4.
